# Columns and labels:
# clinical = settings: human, in vivo
# Protocol: All included patients were ≥ 18 years old, diagnosed with an advanced stage breast cancer, and provided written informed consent. Blood samples taken at routinely scheduled visits plus extensive collection over a 10-12 h dosing interval were gathered during the study. Collected samples were centrifuged, and plasma was stored at -80 °C allowing its conservation until drug level measurements. […] Moreover, information was reconciled with data collected in the randomized controlled medication adherence study in a subset of patients. […] The chromatographic separation was performed on a column XSelect HSS T3 2.1 × 75 mm, 3.5 μm (Waters®, Milford, MA, USA) using a mobile phase composed of a gradient of ammonium acetate 2 mM (+0.1 formic acid) and acetonitrile (+0.1 formic acid). […] The method was validated over the clinically relevant concentration range, i.e., from 0.5 to 500 ng/mL. […] One- and two-compartment models with first- or zero-order absorption, potentially including an absorption lag time were tested. Inter-individual variability was modeled exponentially and tested sequentially on all parameters. Additive, proportional, and mixed models for residual error were compared. Potential associations between post hoc individual parameter estimates and demographic or clinical characteristics were first visually explored and then tested in the model. […] The characteristics available for testing their effect on PD parameters were as follows: age, body weight, ALK, BILT, gamma-glutamyltransferase (GGT), albumin, AST, ALT, eGFR, association with fulvestrant, chemotherapy in the previous treatment line, and POCT measurement. […] Baseline values of continuous covariates were tested on the base ANC parameter while time-varying values were tested on Emax. Continuous covariates were centered and normalized on their median value and tested by linear or allometric functions as appropriate. Missing data were imputed to the population median value. Categorical covariates were coded as 0 or 1, and missing data were first treated as an additional category and then regrouped according to their parameter estimates. The first-order conditional estimation method with interaction (FOCEI) was used for model fitting with the ADVAN4 TRANS4 subroutine for the PK model and the ADVAN6 subroutine defining a system of ordinary differential equations for the PK/PD model. Models were selected based on the improvement in standard goodness-of-fit plots, precision of parameter estimates and eta shrinkage. […] The covariate analysis was performed by forward inclusion (significant level for ΔOFV ≤ -3.84, p ≤ 0.05) followed by backward deletion (significant level for ΔOFV ≥ 7.88, p ≤ 0.005). The final PK/PD model was evaluated with a non-parametric bootstrap using 502 replicates of the initial dataset. The generated median parameters and their CI95% were compared to the final model estimates. In addition, prediction-corrected visual predictive checks (pc-VPCs) were performed to diagnose potential model misspecification by visually comparing observed concentrations with prediction percentiles.
# [1] = tested on: absolute neutrophil count (ANC); assay: Semi-mechanistic PK/PD neutropenia model (exposure–toxicity relationship, ANC time course); type: in vivo, human; settings: for Emax (maximum estimated drug effect on kprol) / ωEC50 (between-subject variability) / ωEmax (between-subject variability): final PK/PD model
# Protocol: ANC was directly retrieved from the patients' medical records up to the date of the last PK observation. The most recent ANC value in the three months before palbociclib initiation was retained as the base value. Blood sampling for ANC measurement was performed either concomitantly or separately from that for palbociclib quantification. The proliferation, maturation, and homeostatic regulation of neutrophils were mimicked by a series of 5 compartments, as described in the model developed by Friberg et al.. This structural model was directly applied to our data. The first compartment represented stem cells and proliferating precursor cells in the bone marrow with the systematic renewal of proliferative cells' production modeled by the rate constant kprol. This compartment was followed by three transit compartments to account for the delay between proliferation and maturation according to the first-order rate constant ktr, defined as n+1/MTT , where MTT is the mean transit time of neutrophils. The last compartment characterized the blood circulation with the neutrophil elimination rate constant kcirc. The rate constants kprol, ktr, and […] assumed to be equal, as in the original model. […] ANCs were log-transformed before the analysis, and an additive error on the log scale was used to describe residual variability. Owing to long computation runtime, neutropenia model development was first performed by fixing the PK parameters that were estimated together with PD parameters in the final model. Potential associations between post hoc individual parameter estimates and demographic or clinical characteristics were first visually explored and then tested in the model. […] The characteristics available for testing their effect on PD parameters were as follows: age, body weight, ALK, BILT, gamma-glutamyltransferase (GGT), albumin, AST, ALT, eGFR, association with fulvestrant, chemotherapy in the previous treatment line, and POCT measurement. […] Despite high inter-individual variability on EC50, covariates were not tested on this parameter and were substituted by covariates on Emax as recommended in good practices for exposure-response analyses. Baseline values of continuous covariates were tested on the base ANC parameter while time-varying values were tested on Emax. Continuous covariates were centered and normalized on their median value and tested by linear or allometric functions as appropriate. Missing data were imputed to the population median value. Categorical covariates were coded as 0 or 1, and missing data were first treated as an additional category and then regrouped according to their parameter estimates. The first-order conditional estimation method with interaction (FOCEI) was used for model fitting with the ADVAN4 TRANS4 subroutine for the PK model and the ADVAN6 subroutine defining a system of ordinary differential equations for the PK/PD model. Models were selected based on the improvement in standard goodness-of-fit plots, precision of parameter estimates and eta shrinkage. […] The covariate analysis was performed by forward inclusion (significant level for ΔOFV ≤ -3.84, p ≤ 0.05) followed by backward deletion (significant level for ΔOFV ≥ 7.88, p ≤ 0.005). The final PK/PD model was evaluated with a non-parametric bootstrap using 502 replicates of the initial dataset. The generated median parameters and their CI95% were compared to the final model estimates. In addition, prediction-corrected visual predictive checks (pc-VPCs) were performed to diagnose potential model misspecification by visually comparing observed concentrations with prediction percentiles.
# [2] = Exposure–response relationship: Cox proportional hazards models on progression-free survival; type: in vivo, human; settings: human, plasma, oral; model-predicted, including OFF-treatment periods; read-out: median AUCcum90 (mean cumulative AUC0-24 over 90 days)
# From the text: (§1) To consider the time lapse between radiologic exams (i.e., every 3 months), mean cumulative AUC0-24 over 90 days (AUCcum90) was then predicted. This variable was selected as the exposure metric to be tested as a time-dependent covariate for its influence on PFS. In consideration of the limited number of patients progressing (n = 29), we only included age at treatment initiation as an additional covariate, with an interaction term between age and exposure. Cox proportional hazards models were estimated in R (2021) to evaluate the effect of these covariates on PFS (significance level: p ≤ 0.05).
# metastatic breast cancer = assay: as above; type: in vivo, human; settings: 29 of 44 patients progressed
# From the text: as §1
# [3] = tested on: absolute neutrophil count (ANC); settings: cited from earlier work
# [4] = co-administration of PPIs in fasting conditions, healthy volunteers; cited from earlier work
# [5] = based on PK/PD modeling; cited from earlier work
# [6] = tested on: absolute neutrophil count (ANC); settings: final PK/PD model, FIX at literature value; cited from earlier work
# [7] = bootstrap median (n = 502 samples)
compound,measurement,setting,value
"CC(=O)c1c(C)c2cnc(Nc3ccc(N4CCNCC4)cn3)nc2n(C2CCCC2)c1=O [palbociclib, Palbociclib]",ALAG (absorption lag time),clinical,2.0 h
same,ALAG (absorption lag-time),clinical,1.9 h
same,CL (clearance),clinical,68 L/h
same,"CLIPP,no food (clearance with concomitant coadministration of IPP under fasting conditions)",clinical,106 L/h
same,Vc (central volume of distribution),clinical,2730 L
same,Vc/F (apparent central volume of distribution),clinical,2778 L
same,clearance,clinical; CL (clearance),1130 mL/min
same,clearance,"clinical; CLIPP,no food (clearance with concomitant coadministration of IPP under fasting conditions)",1770 mL/min
same,Vd,clinical; Vc (central volume of distribution),2700 L
same,Vd/F,clinical; Vc/F (apparent central volume of distribution),2800 L
same,EC50,"[1]; Homo sapiens, Neutrophil, base model, attributed to data sparseness, not retained, read-out: estimated EC50 (Emax model, before fixing)",0.0088 µg/mL
same,Emax (maximum estimated drug effect on kprol),[1]; [7],0.22
same,ωEC50 (between-subject variability),[1]; [7],91 CV%
same,ωEmax (between-subject variability),[1]; [7],16 CV%
same,Emax (maximum estimated drug effect on kprol),[1]; estimate,0.22
same,ωEC50 (between-subject variability),[1]; estimate,93 CV%
same,ωEmax (between-subject variability),[1]; estimate,15 CV%
same,mean cumulative AUC0-24 over 90 days (AUCcum90),[2],1140 ng·h/mL
same,median PFS,metastatic breast cancer,17 months
same,EC50 literature value,[3],0.0401 µg/mL
same,decrease in AUC,[4],62%
same,upper limit for trough concentration to avoid severe neutropenia,[5],100 ng/mL
same,EC50 (palbociclib concentration corresponding to 50% of the maximum effect),[6],0.0401 µg/mL

# From paper PMC9322950 (Pharmaceutics, 2022)
